Measurements reported in patent US8420823B2, “Long-chain fatty acyl elongase inhibitor comprising arylsulfonyl derivative as active ingredient” (MSD K.K., priority 2008, dated 2013).
Where a name gives a salt, the structure may show the parent alone.

The compounds below were run against T1, human LCE (Homo sapiens, UniProt Q9H5J4) (assay: LCE enzyme activity-inhibitory test). Conditions: [14C]-malonyl CoA / palmitoyl CoA substrate, 37° C., 90 minutes.
T1 sequence (Q9H5J4 1-265): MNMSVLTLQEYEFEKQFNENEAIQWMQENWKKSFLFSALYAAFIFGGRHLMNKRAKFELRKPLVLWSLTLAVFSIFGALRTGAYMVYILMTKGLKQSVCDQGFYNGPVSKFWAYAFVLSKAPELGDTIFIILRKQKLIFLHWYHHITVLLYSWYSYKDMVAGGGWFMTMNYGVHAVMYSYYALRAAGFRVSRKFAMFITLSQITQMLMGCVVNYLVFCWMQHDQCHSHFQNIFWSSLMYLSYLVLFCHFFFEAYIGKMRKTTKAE
Type: biochemical
Description: Pharmacological Test Example 1 (LCE Enzyme Activity-inhibitory Test)
A test compound was dissolved in dimethyl sulfoxide (DMSO to be 10 mM), and then diluted with DMSO to prepare a 1000-fold concentrated solution of the test concentration. An improved Moon et al's method (J. Biol. Chem., Vol. 276, pp. 45358-45366, 2001) was employed for the LCE enzyme activity-inhibitor test. Concretely, the diluted compound was applied to a 96-well assay plate (Corning, 96-well assay block) in an amount of 1.0 μL/well; 50 μL of a phosphate buffer solution (100 mM potassium phosphate buffer, pH 6.5), and 25 μL of a substrate solution (100 mM potassium phosphate buffer (pH 6.5), 4.0 μM rotenone, 80 μM fatty acid-free bovine serum albumin, 160 μM palmitoyl CoA, 80 μM malonyl CoA, 3.5 μM [^14C]-malonyl CoA (1.92 GBq/mmol, by Amersham)) were added to each well; 25 μL of an enzyme solution (100 mM potassium phosphate buffer (pH 6.5), 100 μg/mL human LCE) was added thereto; the top of the plate was airtightly sealed up; and this was incubated with gently shaking and stirring at 37° C. for 90 minutes. Next, 100 μL of 5 M hydrochloric acid was added to each well, and the assay plate was stirred at room temperature for 5 minutes to stop the enzyme reaction with hydrolyzing the acyl CoA. Next, the enzyme reaction solution in each well was adsorbed by each well of a 96-well GF/C filter plate (Perkin Elmer Unifilter 96 GF/C); the individual wells were washed with water to remove the non-adsorbed malonyl CoA; and the GF/C filter plate was dried at 50° C. for 60 minutes. Next, 30 μL of a scintillator (Perkin Elmer Microscinti 0) was added to each well; then the top of the plate was sealed up; and the fixed [^14C] radioactivity was measured with a microplate scintillation counter (Perkin Elmer TopCount) to be the enzyme activity. The human LCE enzyme-inhibitory activity of the test compound was calculated, based on the radioactivity of the DMSO-added well with no test compound therein as a control.

`CC(C)Oc1ccc(NC(=O)c2cccc(S(=O)(=O)N3CCOC(COc4ccccc4)C3)c2)cc1` (centres unmarked) [Example 9, N-(4-isopropoxyphenyl)-3-{[2-(phenoxymethyl)morpholin-4-yl]sulfonyl}benzamide] and `CC(C)Oc1ccc(NC(=O)c2cccc(S(=O)(=O)N3CCCC(OCc4ccccn4)C3)c2)cc1` (centres unmarked) [Example 21, N-(4-isopropoxyphenyl)-3-{[3-(pyridin-2-ylmethoxy)piperidin-1-yl]sulfonyl}benzamide trifluoroacetate] are within 1.5-fold of each other in IC50: 150 nM for the first, 200 nM for the second.

Going from `COc1ccccc1NC(=O)c1cccc(S(=O)(=O)N2CCCC(CO)C2)c1` (centres unmarked) [Example 42, 3-{[3-(hydroxymethyl)piperidin-1-yl]sulfonyl}-N-(2-methoxyphenyl)benzamide] to `CNC(=O)C1CCCN(S(=O)(=O)c2cccc(C(=O)Nc3ncccc3OC)c2)C1` (centres unmarked) [Example 60, 1-[(3-{[(3-methoxypyridin-2-yl)amino]carbonyl}phenyl)sulfonyl]-N-methylpiperidine-3-carboxamide], the IC50 rises from 500 nM to 1100 nM (2.2-fold). The first is the more potent here.

Compared with `CC(C)Oc1cc(NC(=O)c2cccc(S(=O)(=O)N3CCC(F)(F)CC3)c2)[nH]n1` [Example 68, 5-({3-[(4,4-difluoropiperidin-1-yl)sulfonyl]benzoyl}amino)-3-isopropoxy-1H-pyrazole hydrochloride], `CC(C)Oc1cc(NC(=O)c2cccc(S(=O)(=O)N3CCCCC3)c2)[nH]n1` [Example 69, 3-Isopropoxy-5-{[3-(piperidin-1-ylsulfonyl)benzoyl}amino]-1H-pyrazole hydrochloride] is 5.7-fold lower in IC50: 13 nM for the first, 2.3 nM for the second. The second is the more potent here.

Going from `COc1ccc(S(=O)(=O)N2CCCCC2)cc1C(=O)Nc1ncccc1OC` [Example 156, 2-Methoxy-N-(3-methoxypyridin-2-yl)-5-(piperidin-1-ylsulfonyl)benzamide] to `COc1cc(Br)cnc1NC(=O)c1cccc(S(=O)(=O)N2CCCCC2)c1` [Example 106, N-(5-bromo-3-methoxypyridin-2-yl)-3-(piperidin-1-ylsulfonyl)benzamide], the IC50 rises from 150 nM to 1800 nM (12-fold). The first is the more potent here.

Compared with `O=C(Nc1ccc(C(F)(F)F)cc1)c1cccc(S(=O)(=O)N2CCCCC2)c1` [Example 72, 3-(Piperidin-1-ylsulfonyl)-N-[4-(trifluoromethyl)phenyl]benzamide], `CC(C)(O)c1ccc(NC(=O)c2cccc(S(=O)(=O)N3CCCCC3)c2)cc1` [Example 94, N-[4-(1-hydroxy-1-methylethyl)phenyl]-3-(piperidin-1-ylsulfonyl)benzamide] is 4.2-fold higher in IC50: 1200 nM for the first, 5100 nM for the second. The first is the more potent here.

Compared with `CC(C)Oc1ccc(NC(=O)Cc2cccc(S(=O)(=O)N3CCCCC3)c2)cc1` [Example 160, N-(4-isopropoxyphenyl)-2-[3-(piperidin-1-ylsulfonyl)phenyl]acetamide], `CC(C)Oc1ccc(C(=O)NCCc2cccc(S(=O)(=O)N3CCCCC3)c2)cc1` [Example 161, 4-Isopropoxy-N-{2-[3-(piperidin-1-ylsulfonyl)phenyl]ethyl}benzamide] is 37-fold higher in IC50: 130 nM for the first, 4800 nM for the second.

`CC(C)Oc1ccc(NC(=O)c2cccc(S(=O)(=O)N3CCc4o[nH]c(=O)c4C3)c2)cc1` [Example 22, N-(4-isopropoxyphenyl)-3-[(3-oxo-2,3,6,7-tetrahydroisoxazolo[4,5-c]pyridin-5(4H)-yl)sulfonyl]benzamide] and `CC(C)Oc1ccc(NC(=O)c2cccc(S(=O)(=O)N3CCc4[nH]ncc4C3)c2)cc1` [Example 3, N-(4-isopropoxyphenyl)-3-(1,4,6,7-tetrahydro-5H-pyrazolo[4,3-c]pyridin-5-ylsulfonyl)benzamide trifluoroacetate] are within 1.5-fold of each other in IC50: 5100 nM for the first, 7400 nM for the second.

`COc1cccnc1NC(=O)c1cccc(S(=O)(=O)N2CCCC(c3nc4ccccc4[nH]3)C2)c1` (centres unmarked) [Example 50, 3-{[3-(1H-benzimidazol-2-yl)piperidin-1-yl]sulfonyl}-N-(3-methoxypyridin-2-yl)benzamide] and `COc1cccnc1NC(=O)c1cccc(S(=O)(=O)N2CCCC(C(=O)NCc3ccccc3)C2)c1` (centres unmarked) [Example 61, N-benzyl-1-[(3-{[(3-methoxypyridin-2-yl)amino]carbonyl}phenyl)sulfonyl]piperidine-3-carboxamide] are within 1.5-fold of each other in IC50: 53 nM for the first, 54 nM for the second.

Compared with `CC(C)Oc1ccc(NC(=O)c2cccc(S(=O)(=O)c3cccnc3)c2)cc1` [Example 130, N-(4-isopropoxyphenyl)-3-(pyridin-3-ylsulfonyl)benzamide], `CC(C)Oc1ccc(NC(=O)c2cccc(S(=O)(=O)c3cn[nH]c3)c2)cc1` [Example 143, N-(4-isopropoxyphenyl)-3-(1H-pyrazol-4-ylsulfonyl)benzamide] is 3-fold higher in IC50: 1500 nM for the first, 4500 nM for the second. The first is the more potent here.

Going from `COc1ccc(NC(=O)c2cccc(S(=O)(=O)NC(C)(C)C)c2)cc1` [Example 45, 3-[(Tert-butylamino)sulfonyl]-N-(4-methoxyphenyl)benzamide] to `COc1ccc(NC(=O)c2cccc(S(=O)(=O)NCCCCC(=O)O)c2)cc1` [Example 44, 5-{[(3-{[(4-methoxyphenyl)amino]carbonyl}phenyl)sulfonyl]amino}pentanoic acid], the IC50 rises from 10000 nM to 15000 nM (1.5-fold).

Going from `COc1cccnc1NC(=O)c1cccc(S(=O)(=O)N2C3CCCC2CC3)c1` [Example 54, 3-(8-Azabicyclo[3.2.1]oct-8-ylsulfonyl)-N-(3-methoxypyridin-2-yl)benzamide] to `COc1cccnc1NC(=O)c1cccc(S(=O)(=O)c2ccccc2)c1` [Example 135, N-(3-methoxypyridin-2-yl)-3-(phenylsulfonyl)benzamide], the IC50 falls from 1600 nM to 510 nM (3.1-fold).

First: CC(C)Oc1ccc(NC(=O)c2cccc(S(=O)(=O)N3CC4CCC3CC4)c2)cc1 [Example 16, 3-(2-Azabicyclo[2.2.2]oct-2-ylsulfonyl)-N-(4-isopropoxyphenyl)benzamide]
Second: CC(C)Oc1ccc(NC(=O)c2cccc(S(=O)(=O)N3CCN4CCCCC4C3)c2)cc1 (centres unmarked) [Example 13, N-(4-Isopropoxyphenyl)-3-(octahydro-2H-pyrido[1,2-a]pyrazin-2-ylsulfonyl)benzamide trifluoroacetate]
The IC50 of the first is 47-fold lower: 110 nM for the first, 5200 nM for the second. The first is the more potent here.

Going from `CC(C)Oc1ccc(NC(=O)c2cc(S(=O)(=O)N3CCCCC3)ccc2OCC(=O)O)cc1` [Example 154, [2-{[(4-Isopropoxyphenyl)amino]carbonyl}-4-(piperidin-1-ylsulfonyl)phenoxy]acetic acid] to `CC(C)Oc1ccc(NC(=O)c2cc(S(=O)(=O)N3CCCCC3)ccc2O)cc1` [Example 151, 2-Hydroxy-N-(4-isopropoxyphenyl)-5-(piperidin-1-ylsulfonyl)benzamide], the IC50 rises from 300 nM to 3600 nM (12-fold).

Compared with `CC(C)c1ccc(NC(=O)c2cccc(S(=O)(=O)NC3CCCCC3)c2)cc1` [Example 38, 3-[(Cyclohexylamino)sulfonyl]-N-(4-isopropylphenyl)benzamide], `CC(C)c1ccc(NC(=O)c2cccc(S(=O)(=O)N3CCCCC3)c2)cc1` [Example 77, N-(4-isopropylphenyl)-3-(piperidin-1-ylsulfonyl)benzamide] is 29-fold lower in IC50: 1000 nM for the first, 34 nM for the second. The second is the more potent here.

Compared with `CC(C)Oc1cc(NC(=O)c2cccc(S(=O)(=O)N3CCCC(O)C3)c2)[nH]n1` (centres unmarked) [Example 66, 5-({3-[(3-Hydroxypiperidin-1-yl)sulfonyl}benzoyl]amino)-3-isopropoxy-1H-pyrazole hydrochloride], `O=C(Nc1ccon1)c1cccc(S(=O)(=O)N2CCCCC2)c1` [Example 82, N-isoxazol-3-yl-3-(piperidin-1-ylsulfonyl)benzamide] is 260-fold higher in IC50: 28 nM for the first, 7300 nM for the second.

First: CC(C)Oc1ccc(NC(=O)c2cccc(S(=O)(=O)c3ccccn3)c2)c(F)c1 [Example 126, N-(2-fluoro-4-isopropoxyphenyl)-3-(pyridin-2-ylsulfonyl)benzamide]
Second: Cc1ccnc(S(=O)(=O)c2cccc(C(=O)Nc3ccc(OC(C)C)cc3)c2)c1 [Example 131, N-(4-isopropoxyphenyl)-3-[(4-methylpyridin-2-yl)sulfonyl]benzamide]
The IC50 of the first is 11-fold lower: 150 nM for the first, 1600 nM for the second. The first is the more potent here.

Compared with `C=Cc1cnc(NC(=O)c2cccc(S(=O)(=O)N3CCCCC3)c2)c(OC)c1` [Example 107, N-(3-methoxy-5-vinylpyridin-2-yl)-3-(piperidin-1-ylsulfonyl)benzamide], `COc1ccc(NC(=O)c2cccc(S(=O)(=O)N3CCCCC3)c2)c(OC)n1` [Example 96, N-(2,6-dimethoxypyridin-3-yl)-3-(piperidin-1-ylsulfonyl)benzamide] is 1.6-fold lower in IC50: 520 nM for the first, 320 nM for the second.

Compound `O=C(Nc1cc(C2CC2)n[nH]1)c1cccc(S(=O)(=O)c2ncccn2)c1` [Example 140, N-(3-cyclopropyl-1H-pyrazol-5-yl)-3-(pyrimidin-2-ylsulfonyl)benzamide] has an IC50 of 380 nM.
